Laboratory results taken from patent publication US11666584B2, “Steroidal hormones for the treatment and prevention of wave burst arrhythmia” (ASSISTANCE PUBLIQUE—HOPITAUX DE PARIS, priority 2016, dated 2023).
Like-named read-outs stand apart in the source and are kept apart here.

Columns and labels:
[1] = target: T1, IKr potassium channel (Homo sapiens, UniProt Q12809)
Protocol: Statistics: ns represents p>0.1. Various tests (Chi^2 test with trend, one-way ANOVA with Tukey or Kruskal-Wallis post-test with Dunn's post-test) were used. The quantitative data are presented as a mean±standard error or median with interquartile range.
The PC1 value is obtained by analysis by main components of the variables ΔQTc (%), ΔTpTe (%) and ΔTAmp (%) and quantitatively reflects the IKr inhibition obtained three hours after taking sotalol.
The ΔQTcF, ΔTpTe and ΔTAmp were also calculated.

[2] = characteristic of the pill's progestogen; cited from earlier work
[3] = target: T2, androgen receptor (NR3C4) (Homo sapiens, UniProt P10275); conditions: characteristic of the progestogen; cited from earlier work
T2 sequence (P10275 1-920): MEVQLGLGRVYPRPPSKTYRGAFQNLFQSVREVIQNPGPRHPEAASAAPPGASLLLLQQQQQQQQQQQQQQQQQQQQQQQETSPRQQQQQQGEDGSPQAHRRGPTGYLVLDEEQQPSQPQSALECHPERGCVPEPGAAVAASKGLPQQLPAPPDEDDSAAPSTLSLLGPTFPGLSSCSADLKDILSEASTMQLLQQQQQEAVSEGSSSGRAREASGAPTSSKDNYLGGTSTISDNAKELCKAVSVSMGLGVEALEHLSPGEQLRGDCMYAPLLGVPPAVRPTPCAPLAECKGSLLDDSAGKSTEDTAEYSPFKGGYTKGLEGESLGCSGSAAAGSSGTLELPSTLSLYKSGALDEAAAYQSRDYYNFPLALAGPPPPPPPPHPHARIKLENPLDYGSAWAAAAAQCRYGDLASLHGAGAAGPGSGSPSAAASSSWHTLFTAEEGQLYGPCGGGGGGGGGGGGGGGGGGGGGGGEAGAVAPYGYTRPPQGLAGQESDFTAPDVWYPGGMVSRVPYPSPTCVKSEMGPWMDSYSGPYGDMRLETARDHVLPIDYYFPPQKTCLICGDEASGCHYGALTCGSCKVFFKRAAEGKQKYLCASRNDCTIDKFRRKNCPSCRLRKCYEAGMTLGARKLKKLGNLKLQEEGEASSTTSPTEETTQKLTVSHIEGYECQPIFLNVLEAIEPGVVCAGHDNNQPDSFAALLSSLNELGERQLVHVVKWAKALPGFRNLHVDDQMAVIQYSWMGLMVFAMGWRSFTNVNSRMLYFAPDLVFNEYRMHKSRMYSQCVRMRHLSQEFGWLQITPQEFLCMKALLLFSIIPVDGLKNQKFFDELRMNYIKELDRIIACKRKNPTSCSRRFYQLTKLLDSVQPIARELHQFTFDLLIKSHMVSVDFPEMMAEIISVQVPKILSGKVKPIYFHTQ

[4] = test system: transgenic rabbits with a long QT interval; conditions: cited from earlier work
[5] = target: T1, IKr potassium channel; test: ECG changes three hours after a single oral dose of 80 mg sotalol in healthy volunteers (Example 1); assay type: in vivo; parameters: from tissue; host or cells: heart of living human volunteers (in vivo ECG); conditions: for decrease in TAmp / increase in TpTe: H3 after 80 mg sotalol vs basal; for subjects exhibiting a double peak (notch) / subjects exhibiting a double peak (notch), proportion: after 80 mg sotalol
Protocol: Results obtained on a cohort of 995 volunteers in good health, from 18 to 60 years old, of European or North African origin, were used for the development of a marker representative of inhibition of the IKr potassium channel.
Briefly, the electrocardiogram (ECG) of the patients (each one in triplicate, for 10 seconds) was recorded after 10 minutes at rest lying on their back. A single oral dose of 80 mg of sotalol was then given to the patients and the ECG monitoring was continued. Three hours after the sotalol had been taken, the ECG was again recorded (in triplicate) after the subjects had remained lying on their back for 10 minutes.
The QTcF (QT corrected using Fridericia's formula), TpTe (interval between the first peak and the end of the T wave), TAmp (amplitude of the first peak of the T wave) and the presence of double peaks in the T wave (called notches) were quantified. The Fridericia correction (QTcF) was used to correct the QT with respect to the heart rate, in accordance with the ICH guidelines E14.
TpTe was measured using the tangent method, in triplicate, on a representative heart beat (averaged representation of an ECG of 10 seconds) on the V3, V4 and V5 derivations. In the event of a double peak of the T wave (notch), the peak taken into consideration was the first peak, even if the amplitude of the T wave was smaller for this peak. The average value obtained was retained. In the event of it being impossible to measure TpTe on V3, V4 or V5, the measurement was instead carried out on V2 (for V3), or V6 (for V4/V5).
In order to measure TAmp, positioning was on the site of the maximum amplitude of the first peak of the T wave on a representative beat (averaged representation of an ECG of 10 seconds) on the DII, V2 and V3 leads. The average of the TAmp values resulting from these three leads, and measured on three different ECGs of 10 seconds (in triplicate), was calculated and retained. If it was not possible to measure a TAmp on one of these leads (in particular because of a low value (<0.1 mV)), the V4 lead was used.
QTcF was measured using the tangent method on the DII lead for three consecutive beats and the average value of an evaluation in triplicate was retained.
For these parameters, the difference between the value obtained at H3 and the basal value was measured. This difference was expressed as percentage relative to the basal value, and the calculations were carried out such that the value calculated is positive.
The following calculations were therefore carried out: ΔQTcF (%)=(QTcF at H3−QTcF basal)/(QTcF basal)×100 ΔTpTe (%)=(TpTe at H3−TpTe basal)/(TpTe basal)×100 ΔTAmp (%)=(TAmp basal−TAmp at H3)/(TAmp basal)×100
In order to evaluate the double peaks (notches), all the ECGs were evaluated independently by two investigators. The patients were described as notchers or non-notchers, in the event of agreements between the two investigators.
The statistical analyses were carried out with the R software (https://www.r-project.org/).

[6] = test system: torsades de pointes; test: Clinical case: testosterone in a person with hypogonadism and arrhythmic storm on torsades de pointes (Example 3); assay type: in vivo, human
Protocol: Peripheral hypogonadism was identified in a person suffering from ischemic cardiopathy and from Erdheim-Chester disease with arrhythmic storm on torsades de pointes with long QT and notching (double peak (notch) of the T wave) promoted by iatrogenesis and bradycardia with more than seven episodes in less than one week.
Testosterone (Androtardyl, testosterone enantate 250 mg/ml) was administered to the patient in amounts which made it possible to maintain a testosterone level making it possible to correct their hypogonadism, the bradycardia was corrected and an implantable defibrillator was implanted as secondary prevention.

[7] = three hours after 80 mg sotalol, difference between groups (FIG. 3)
[8] = first of the two cohorts (exploration)
[9] = second of the two cohorts (replication)
[10] = three hours after single oral dose of 80 mg sotalol vs basal

T1 sequence (Q12809 whole entry): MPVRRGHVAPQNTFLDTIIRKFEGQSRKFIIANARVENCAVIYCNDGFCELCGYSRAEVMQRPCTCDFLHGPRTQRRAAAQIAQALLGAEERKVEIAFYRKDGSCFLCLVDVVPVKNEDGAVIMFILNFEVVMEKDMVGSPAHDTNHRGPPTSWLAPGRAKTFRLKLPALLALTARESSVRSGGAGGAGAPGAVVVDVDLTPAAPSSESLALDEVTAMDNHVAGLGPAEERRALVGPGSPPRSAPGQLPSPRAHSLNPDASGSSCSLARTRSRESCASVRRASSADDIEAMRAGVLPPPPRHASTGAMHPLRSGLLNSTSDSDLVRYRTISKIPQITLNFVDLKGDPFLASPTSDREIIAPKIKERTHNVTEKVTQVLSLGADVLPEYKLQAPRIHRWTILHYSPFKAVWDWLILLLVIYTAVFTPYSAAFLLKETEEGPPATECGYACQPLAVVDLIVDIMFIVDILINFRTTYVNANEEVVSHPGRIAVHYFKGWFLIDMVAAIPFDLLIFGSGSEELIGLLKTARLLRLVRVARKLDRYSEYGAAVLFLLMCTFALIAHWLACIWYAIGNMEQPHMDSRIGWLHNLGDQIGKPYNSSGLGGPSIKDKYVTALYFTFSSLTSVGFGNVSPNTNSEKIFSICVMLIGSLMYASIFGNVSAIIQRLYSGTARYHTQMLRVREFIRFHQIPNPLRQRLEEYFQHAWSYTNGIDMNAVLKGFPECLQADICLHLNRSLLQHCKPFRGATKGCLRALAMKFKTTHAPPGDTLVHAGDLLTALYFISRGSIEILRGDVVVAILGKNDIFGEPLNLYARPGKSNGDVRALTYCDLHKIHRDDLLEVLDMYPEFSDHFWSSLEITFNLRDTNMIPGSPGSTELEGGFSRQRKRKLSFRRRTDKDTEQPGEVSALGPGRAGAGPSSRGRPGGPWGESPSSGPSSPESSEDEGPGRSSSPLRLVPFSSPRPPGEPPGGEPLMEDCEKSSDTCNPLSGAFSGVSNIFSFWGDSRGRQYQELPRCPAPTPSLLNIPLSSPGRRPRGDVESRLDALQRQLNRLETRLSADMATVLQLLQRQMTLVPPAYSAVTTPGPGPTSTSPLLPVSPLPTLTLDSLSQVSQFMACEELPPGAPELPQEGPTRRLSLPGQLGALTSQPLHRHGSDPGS

## C#C[C@]1(O)CC[C@H]2[C@@H]3CCC4=CCCC[C@@H]4[C@H]3C(=C)C[C@@]21CC [desogestrel]
[1]; female, human, in vivo, 3 h
  incidence of double peaks (notches): 7.3%
[1]; in vivo
  effect with regard to the appearance of a double peak (notch) of the T wave: protective
  risk of drug-induced IKr inhibition: neutral
[2]
  Progestogenic activity: High

## C[C@]12CCC3=C4CCC(=O)C=C4CC[C@H]3[C@@H]1CC[C@@]2(O)CC#N [dienogest]
[3]
  Androgenicity: low androgenic activity, or even an anti-androgenic activity

## C[C@]12CCC(=O)C=C1[C@@H]1C[C@@H]1[C@H]1[C@@H]3[C@@H]4C[C@@H]4[C@@]4(CCC(=O)O4)[C@@]3(C)CC[C@@H]12 [drospirenone]
[1]; conclusion in words, by pill type
  risk of drug-induced IKr inhibition: greatest risk
[1]; [7]
  increase in QTcF greater than that of patients taking levonorgestrel: 7.0 ± 2.7 ms
  increase in QTcF greater than that of patients without hormonal contraception: 6.6 ± 2.6 ms
[1]; three hours after administration of Sotalol, by pill type (FIG. 4)
  incidence of double peaks (notches): 25.8%
[2]
  Progestogenic activity: Intermediate

## C#C[C@]1(O)C=C[C@H]2[C@@H]3CCC4=CC(=O)CC[C@@H]4[C@H]3CC[C@@]21CC [gestodene]
[1]; female, human, in vivo, 3 h
  incidence of double peaks (notches): 23.5%
[3]
  Androgenicity: Intermediate/variable
[2]
  Progestogenic activity: High

## C#C[C@]1(O)CC[C@H]2[C@@H]3CCC4=CC(=O)CC[C@@H]4[C@H]3CC[C@@]21CC [levonorgestrel]
[1]; conclusion in words
  effect with regard to the increase in QT: protective
[1]; female, human, in vivo, 3 h
  incidence of double peaks (notches): 16.4%
[1]; in vivo
  risk of drug-induced IKr inhibition: neutral
[2]
  Progestogenic activity: High

## CC(=O)[C@H]1CC[C@H]2[C@@H]3CCC4=CC(=O)CC[C@]4(C)[C@H]3CC[C@]12C [progesterone]
[4]
  effect on sudden death: protective effect

## CC(C)NCC(O)c1ccc(NS(C)(=O)=O)cc1 (centres unmarked) [sotalol]
[1]; study of the present application, as summarised
  average QTc increase observed with sotalol: 20 ms
[5]; exploration cohort
  decrease in TAmp: 13.6±15.7%
  increase in TpTe: 14.2±15.6%
[5]; [8]
  subjects exhibiting a double peak (notch): 40 subjects
  subjects exhibiting a double peak (notch), proportion: 8%
[5]; non-notchers, exploration cohort
  PC1 value: 0.3±1.1
[5]; non-notchers, replication cohort
  PC1 value: 0.3±1.1
[5]; notchers, exploration cohort, PC1 correlates negatively with ΔQTc, ΔTAmp, ΔTpTe
  PC1 value: −2.5±1.5
[5]; notchers, replication cohort
  PC1 value: −2.3±1.8
[5]; replication cohort
  decrease in TAmp: 12.8±15.3%
  increase in TpTe: 15.9±20.5%
[5]; [9]
  subjects exhibiting a double peak (notch): 51 subjects
  subjects exhibiting a double peak (notch), proportion: 10%
[5]; [10]
  absolute change in the duration of QTcF: 21.4 ± 14 ms
  relative change in the duration of QTcF: 5.5±3.5%

## CCCCCCC(=O)O[C@H]1CC[C@H]2[C@@H]3CCC4=CC(=O)CC[C@]4(C)[C@H]3CC[C@]12C [testosterone, testosterone enantate]
[6]; following the introduction of testosterone, one patient
  repolarization: normalized
[6]; three months following the introduction of testosterone, despite reintroduction of QTc-prolonging drug (Vemurafenob)
  recurrence of torsades de pointes (defibrillator monitoring): absence of recurrence of torsades de pointes
